The values that follow come from patent US20240174690A1, “ANNULATED 2-AMINO-3-CYANO THIOPHENES AND DERIVATIVES FOR THE TREATMENT OF CANCER” (BOEHRINGER INGELHEIM INTERNATIONAL GMBH, priority 2021, published 2024).

One experiment concerns the target KRAS (G12D)::SOS1 (Homo sapiens (Human), UniProt P01116, G12D). As to the kind of experiment: KRAS::SOS1 AlphaScreen binding assay, KRAS G12D. In outline:
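Compounds (up to 100 μM, eleven fivefold dilutions in duplicate) were incubated 30 min with KRAS 1-169 (10 nM, or 7.5 nM for G12C), GST-SOS1 564-1049 (5 nM for G12D/G12C, 10 nM for others) and 10 μM GDP in PBS buffer with BSA and Tween. Donor/acceptor beads were then added for 60 min at room temperature, and IC50 came from a 4-parameter fit of the AlphaScreen signal.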
In general terms: Bead proximity is the source of the signal in Alpha formats.

A further experiment relates to SAS cells. As to the kind of experiment: SAS CTG proliferation assay (120 h) (HNSCC, wt amplified). The experiment is classed as cell-based. An outline of the steps: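 SAS cells plated at 300 per well in DMEM:F12 with 10% FCS and left overnight, then given compounds acoustically. After 120 h exposure, viability read by CellTiter-Glo as percent of DMSO control. IC50 from four-parameter non-linear regression.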

In a further experiment the test system is LOVO cells. The experiment can be described thus: LOVO CTG proliferation assay (120 h) (CRC, G13D). The format is cell-based. The conditions noted are these: CTG 120 h. In outline:
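LOVO cells, 1000 per well in DMEM + 10% FCS, were plated overnight and then dosed with compound from DMSO stock. After 120 h at 37 °C, viability was read by CellTiter-Glo luminescence as a percentage of DMSO controls. IC50 was derived by four-parameter non-linear regression.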

Chain of KRAS (G12D)::SOS1 (P01116 other isoform, or with tags, fused parts or gaps G12D): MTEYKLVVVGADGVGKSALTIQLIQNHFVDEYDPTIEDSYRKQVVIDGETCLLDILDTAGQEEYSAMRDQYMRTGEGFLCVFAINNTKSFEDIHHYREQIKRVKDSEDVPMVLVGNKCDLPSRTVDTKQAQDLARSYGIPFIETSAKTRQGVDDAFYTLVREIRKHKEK

On to `COCCNC(=O)c1ccn(-c2cc(O[C@@H](C)[C@@H]3[C@@H](OC)CCN3C)nc(-c3noc4c3CCC[C@@]43CCCc4sc(N)c(C#N)c43)n2)n1` [II-200], for which the results for the IC50 at KRAS (G12D)::SOS1, with SAS cells and in the experiment on LOVO cells (Homo sapiens) were 1 nM, 8 nM and 15 nM, respectively.
The like results for `C[C@H](Oc1cc(N2CC3COCC(C2)N3)nc(-c2noc3c2CCC[C@@]32CCCc3sc(N)c(C#N)c32)n1)[C@@H]1CCCN1C` [II-160] were, in that order, 2 nM, 821 nM and 7610 nM.
The like results for `CO[C@H]1CCN(C)[C@@H]1[C@H](C)Oc1cc(-n2ccc(C(=O)N[C@@H](C)c3ccccn3)n2)nc(-c2noc3c2CCC[C@@]32CCCc3sc(N)c(C#N)c32)n1` [II-196] were, in that order, 1 nM, 9 nM and 15 nM.
The like results for `CCN1CCN(c2cc(O[C@@H](C)[C@@H]3C[C@@H](F)CN3C)nc(-c3noc4c3CCC[C@@]43CCCc4sc(N)c(C#N)c43)n2)CC12CC2` [II-185] were, in that order, 1 nM, 2420 nM and 714 nM.
Consider `C[C@H](Oc1cc(-n2ccc(-c3cn([C@H]4CCOC4)nn3)n2)nc(-c2noc3c2CCC[C@@]32CCCc3sc(N)c(C#N)c32)n1)[C@@H]1CCCN1C` [II-212], for which the IC50 (commonly the concentration that inhibits the measured activity by half) on KRAS (G12D)::SOS1 turned out to be 1 nM; in the experiment with SAS cells, 19 nM; with LOVO cells (Homo sapiens) it was 35 nM.
For `C[C@H](Oc1cc(-n2ccc(C3(O)COC3)n2)nc(-c2noc3c2CCC[C@@]32CCCc3sc(N)c(C#N)c32)n1)[C@@H]1CCCN1C` [II-189] the same measures were 2 nM, 51 nM and 39 nM.
For `C[C@H](Oc1cc(-n2cc(-c3cncs3)nn2)nc(-c2noc3c2CCC[C@@]32CCCc3sc(N)c(C#N)c32)n1)[C@@H]1CCCN1C` [II-125] the same measures were 6 nM, 182 nM and 97 nM.
For `COc1c(O[C@@H](C)[C@@H]2CCCN2C)nc(-c2noc3c2CCC[C@@]32CCCc3sc(N)c(C#N)c32)nc1-n1ccc(C(N)=O)n1` [II-159] the same measures were 6 nM, 70 nM and 356 nM.
Regarding `C[C@H](O)Cn1ncc(-c2cc(O[C@@H](C)[C@@H]3CCCN3C)nc(-c3noc4c3CCC[C@@]43CCCc4sc(N)c(C#N)c43)n2)n1` [II-134], the IC50 is 4 nM at KRAS (G12D)::SOS1, 35 nM with SAS cells and 3240 nM in the experiment with LOVO cells (Homo sapiens).
Take `C[C@H](Oc1cc(-n2cncc3ccnc2-3)nc(-c2onc3c2CCC[C@@]32CCCc3sc(N)c(C#N)c32)n1)[C@@H]1CCCN1C` [I-14]: the concentration for half-maximal inhibition (IC50) on KRAS (G12D)::SOS1 was determined as 3 nM; in the experiment with SAS cells, 25 nM; in the experiment on LOVO cells (Homo sapiens) it was 1350 nM.
Regarding `C[C@H]1CNCCCN1c1cc(-n2ccnc2)nc(-c2noc3c2CCC[C@@]32CCCc3sc(N)c(C#N)c32)n1` [II-142], the values for the IC50 at KRAS (G12D)::SOS1, in the experiment on SAS cells and in the experiment with LOVO cells (Homo sapiens) were 25 nM, 6110 nM and 2640 nM, respectively.
For `C[C@H](Oc1cc(-n2cncn2)nc(-c2onc3c2CCC[C@@]32CCCc3sc(N)c(C#N)c32)n1)[C@@H]1CCCN1C` [I-18] the same measures were 3 nM, 72 nM and 260 nM.
For `C[C@H](Oc1cc(-n2cc3ccn([C@@H]4CCOC4)c(=O)c3n2)nc(-c2noc3c2CCC[C@@]32CCCc3sc(N)c(C#N)c32)n1)[C@@H]1CCCN1C` [II-203] the same measures were 2 nM, 18 nM and 70 nM.
For `CC(C)[C@@H]1CN(c2cc(O[C@@H](C)[C@@H]3CCCN3C)nc(-c3noc4c3CCC[C@@]43CCCc4sc(N)c(C#N)c43)n2)CCN1` [II-166] the same measures were 1 nM, 1180 nM and 863 nM.
On to `COCCNC(=O)c1ccn(-c2cc(O[C@@H](C)[C@@H]3CCCN3C)nc(-c3noc4c3CCC[C@@]43CCCc4sc(N)c(C#N)c43)n2)n1` [II-195], for which the half-inhibitory concentration (IC50) came out at 1 nM on KRAS (G12D)::SOS1, 37 nM in the experiment on SAS cells and 12 nM in the experiment on LOVO cells (Homo sapiens).
For `C[C@H](Oc1cc(-n2cc3ccn([C@H]4CCOC4)c(=O)c3n2)nc(-c2noc3c2CCC[C@@]32CCCc3sc(N)c(C#N)c32)n1)[C@@H]1CCCN1C` [II-202] the same measures were 1 nM, 21 nM and 103 nM.
With `CO[C@@H]1C[C@@H]([C@H](C)Oc2cc(N3CCN(C)C4(CC4)C3)nc(-c3noc4c3CCC[C@@]43CCCc4sc(N)c(C#N)c43)n2)N(C)C1` [II-152], the IC50 on KRAS (G12D)::SOS1 was determined as 3 nM; in the experiment with SAS cells, 4230 nM; with LOVO cells (Homo sapiens), 650 nM.
As for `C[C@H](Oc1cc(-n2ccc(C(=O)N[C@H]3CCOC3)n2)nc(-c2noc3c2CCC[C@@]32CCCc3sc(N)c(C#N)c32)n1)[C@@H]1CCCN1C` [II-193], the values for the IC50 on KRAS (G12D)::SOS1, with SAS cells and in the experiment on LOVO cells were 1 nM, 10 nM and 12 nM, respectively.
As for `C[C@H](Oc1cc(N2CCN(C)C3(CC3)C2)nc(-c2noc3c2CCC[C@@]32CCCc3sc(N)c(C#N)c32)n1)[C@@H]1C[C@@H](F)CN1C` [II-149], the values for the IC50 at KRAS (G12D)::SOS1, in the experiment with SAS cells and in the experiment with LOVO cells (Homo sapiens) were 1 nM, 849 nM and 270 nM, respectively.
The like results for `C[C@H](Oc1cc(N2CCNC3(CC3)C2)nc(-c2noc3c2CCC[C@@]32CCCc3sc(N)c(C#N)c32)n1)[C@@H]1C[C@@H](F)CN1C` [II-165] were, in that order, 1 nM, 437 nM and 303 nM.
For `C[C@H](Oc1cc(-c2ccn([C@H]3CCOC3)n2)nc(-c2noc3c2CCC[C@@]32CCCc3sc(N)c(C#N)c32)n1)[C@@H]1CCCN1C` [II-127] the same measures were 3 nM, 18 nM and 131 nM.
The like results for `C[C@H](Oc1cc(N2CCOC2=O)nc(-c2noc3c2CCC[C@@]32CCCc3sc(N)c(C#N)c32)n1)[C@@H]1CCCN1C` [II-143] were, in that order, 1 nM, 48 nM and 96 nM.
Take `C[C@H](Oc1cc(-n2ccc(-c3cn(CC4(C)COC4)nn3)n2)nc(-c2noc3c2CCC[C@@]32CCCc3sc(N)c(C#N)c32)n1)[C@@H]1CCCN1C` [II-213]: the IC50 worked out at 1 nM at KRAS (G12D)::SOS1, 13 nM with SAS cells and 117 nM with LOVO cells (Homo sapiens).
The like results for `C[C@H](Oc1cc(N2CCNC[C@]23CCOC3)nc(-c2onc3c2CCC[C@@]32CCCc3sc(N)c(C#N)c32)n1)[C@@H]1CCCN1C` [I-12] were, in that order, 1 nM, 218 nM and 824 nM.
For `C[C@H](Oc1cc(-n2ccc(C(=O)N(C)C3COC3)n2)nc(-c2noc3c2CCC[C@@]32CCCc3sc(N)c(C#N)c32)n1)[C@@H]1CCCN1C` [II-194] the same measures were 1 nM, 37 nM and 13 nM.
For `C[C@H](Oc1nc(-c2noc3c2CCC[C@@]32CCCc3sc(N)c(C#N)c32)nc(N2CCNC3(CC3)C2)c1F)[C@@H]1C[C@@H](F)CN1C` [II-155] the same measures were 1 nM, 471 nM and 107 nM.
As for `C[C@H](Oc1cc(-c2ccn(C[C@H]3CCOC3)n2)nc(-c2noc3c2CCC[C@@]32CCCc3sc(N)c(C#N)c32)n1)[C@@H]1CCCN1C` [II-129], the values for the 50% inhibitory concentration (IC50) at KRAS (G12D)::SOS1, with SAS cells and in the experiment with LOVO cells (Homo sapiens) were 3 nM, 18 nM and 69 nM, respectively.
